Test results taken from ChEMBL document CHEMBL1201862, “PubChem BioAssay data set” (2004).
Several values for one entry are separate records, joined by “and”; a condition that tells them apart may be missing. Equal values may be shown once.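 Compound exposure: 48 hours, 5 concentrations, 96-well plates. GI50 is the concentration that inhibits growth by half.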 Activity calls are given as the source filed them. No stated cut-off is given here; in the data, active = GI50 up to about 1.1 µM and inactive = higher.

Columns and labels:
Experiment in all cases: DTP human tumour cell line panel, 48 h
SK-MEL-2 = system: SK-MEL-2
M14 = system: M14
HT-29 = system: HT-29
NCI-H460 = system: NCI-H460
SK-MEL-5 = system: SK-MEL-5
MOLT-4 = system: MOLT-4
BT-549 = system: BT-549
T47D = system: T47D
HOP-92 = system: HOP-92
SK-MEL-28 = system: SK-MEL-28
HCT-15 = system: HCT-15
OVCAR-5 = system: OVCAR-5
U-251 = system: U-251
SK-OV-3 = system: SK-OV-3
MDA-MB-435 = system: MDA-MB-435
SF-295 = system: SF-295
UACC-62 = system: UACC-62
NCI-H23 = system: NCI-H23
OVCAR-3 = system: OVCAR-3
OVCAR-8 = system: OVCAR-8

Row | SMILES | GI50 (SK-MEL-2) | GI50 (M14) | GI50 (HT-29) | GI50 (NCI-H460) | GI50 (SK-MEL-5) | GI50 (MOLT-4) | GI50 (BT-549) | GI50 (T47D) | GI50 (HOP-92) | GI50 (SK-MEL-28) | GI50 (HCT-15) | GI50 (OVCAR-5) | GI50 (U-251) | GI50 (SK-OV-3) | GI50 (MDA-MB-435) | GI50 (SF-295) | GI50 (UACC-62) | GI50 (NCI-H23) | GI50 (OVCAR-3) | GI50 (OVCAR-8)
1 | Cc1cc(=O)[nH]c(-n2[nH]c3c(c2=O)CCCC3)n1 | 52.1 µM (inactive) | 73.1 µM (inactive) | 44.5 µM (inactive) | 25.9 µM (inactive) | 82 µM (inactive) | 60.8 µM (inactive) | > 100 µM (inactive) | > 100 µM (inactive) | 31 µM (inactive) | 45.7 µM (inactive) | 31.3 µM | 69 µM (inactive) | 58.5 µM (inactive) | 93.1 µM (inactive) | > 100 µM (inactive) | 46 µM (inactive) | 39.2 µM (inactive) | 95.9 µM (inactive) |  | 
2 | O=[N+]([O-])c1cccc([N+](=O)[O-])c1S(=O)(=O)c1ccccc1 |  | 2.27 µM (inactive) | 7.67 µM (inactive) | 21.7 µM (inactive) | 14.1 µM (inactive) | 3.38 µM (inactive) | 3.08 µM (inactive) | 2.13 µM (inactive) | 3.76 µM (inactive) | 4.16 µM (inactive) | 1.92 µM | 3.66 µM (inactive) | 8.95 µM (inactive) | 16.8 µM (inactive) | 3.61 µM (inactive) | 16.4 µM (inactive) |  | 21.3 µM (inactive) | 2.49 µM (inactive) | 2.48 µM (inactive)
3 | Cc1ncc(CO)c(CN)c1O | > 100 µM (inactive) | > 100 µM (inactive) | > 100 µM (inactive) | > 100 µM (inactive) | > 100 µM (inactive) | > 100 µM (inactive) | > 100 µM (inactive) | > 100 µM (inactive) |  | > 100 µM (inactive) | > 100 µM | > 100 µM (inactive) | > 100 µM (inactive) | > 100 µM (inactive) | > 100 µM (inactive) | > 100 µM (inactive) | > 100 µM (inactive) | > 100 µM (inactive) | > 100 µM (inactive) | > 100 µM (inactive)
4 | Cn1/c(=N\S(=O)(=O)c2ccccc2)[nH]c2ccccc21 |  | > 100 µM (inactive) | > 100 µM (inactive) | > 100 µM (inactive) | > 100 µM (inactive) | > 100 µM (inactive) | > 100 µM (inactive) | > 100 µM (inactive) | > 100 µM (inactive) | > 100 µM (inactive) | > 100 µM | > 100 µM (inactive) | > 100 µM (inactive) | > 100 µM (inactive) | > 100 µM (inactive) | > 100 µM (inactive) | > 100 µM (inactive) | > 100 µM (inactive) |  | > 100 µM (inactive)
5 | CC1(CF)SCc2nc3ccccc3n21 (stereo unspecified) |  | > 100 µM (inactive) | > 100 µM (inactive) | > 100 µM (inactive) | > 100 µM (inactive) |  | > 100 µM (inactive) | > 100 µM (inactive) | > 100 µM (inactive) | > 100 µM (inactive) | > 100 µM | > 100 µM (inactive) | > 100 µM (inactive) | > 100 µM (inactive) | > 100 µM (inactive) | > 100 µM (inactive) | > 100 µM (inactive) | > 100 µM (inactive) | > 100 µM (inactive) | > 100 µM (inactive)
6 | CCCCCCCCCCCCNC(C)=O | 14.8 µM (inactive) | 17 µM (inactive) | 19.5 µM (inactive) | 17.7 µM (inactive) | 16.8 µM (inactive) |  | 13.7 µM (inactive) | 18.9 µM (inactive) | 2.26 µM (inactive) | 17.6 µM (inactive) | 16.9 µM |  | 15.4 µM (inactive) | 15.7 µM (inactive) | 18.2 µM (inactive) | 17.7 µM (inactive) | 15.6 µM (inactive) | 15.7 µM (inactive) | 17.7 µM (inactive) | 18.9 µM (inactive)
7 | c1ccc2c(c1)ncn2C1CCCCO1 (stereo unspecified) | > 100 µM (inactive) | > 100 µM (inactive) | > 100 µM (inactive) |  | > 100 µM (inactive) | > 100 µM (inactive) | > 100 µM (inactive) | > 100 µM (inactive) | > 100 µM (inactive) | > 100 µM (inactive) | > 100 µM | > 100 µM (inactive) | > 100 µM (inactive) | > 100 µM (inactive) | > 100 µM (inactive) | > 100 µM (inactive) | > 100 µM (inactive) | > 100 µM (inactive) | > 100 µM (inactive) | > 100 µM (inactive)
8 | COc1ccc(Cn2c(=O)c(OC)c(C)c3cc4ccccc4cc32)cc1 | 17.2 µM (inactive) | 41.2 µM (inactive) | 31.4 µM (inactive) | 17.3 µM (inactive) | 6.21 µM (inactive) | 11.8 µM (inactive) | 34.3 µM (inactive) | 33.6 µM (inactive) |  | 94.6 µM (inactive) | 27 µM | 54.5 µM (inactive) | 23 µM (inactive) | 42.3 µM (inactive) | 28.1 µM (inactive) | 32.3 µM (inactive) | 13.2 µM (inactive) | 22.3 µM (inactive) | 19.9 µM (inactive) | 27.9 µM (inactive)
9 | CC(C#N)(NO)C(C)(C#N)NO (stereo unspecified) | > 100 µM (inactive) | > 100 µM (inactive) | > 100 µM (inactive) | > 100 µM (inactive) | > 100 µM (inactive) | > 100 µM (inactive) | > 100 µM (inactive) | > 100 µM (inactive) |  | > 100 µM (inactive) | > 100 µM | > 100 µM (inactive) | > 100 µM (inactive) | > 100 µM (inactive) | > 100 µM (inactive) |  | > 100 µM (inactive) | > 100 µM (inactive) | > 100 µM (inactive) | > 100 µM (inactive)
10 | COc1nc(=O)n(C2CC(N=[N+]=[N-])C(CO)O2)cc1C (stereo unspecified) | > 100 µM (inactive) | > 100 µM (inactive) | > 100 µM (inactive) | > 100 µM (inactive) | > 100 µM (inactive) | > 100 µM (inactive) | > 100 µM (inactive) | > 100 µM (inactive) | > 100 µM (inactive) | > 100 µM (inactive) | > 100 µM | > 100 µM (inactive) | > 100 µM (inactive) |  | > 100 µM (inactive) | > 100 µM (inactive) | > 100 µM (inactive) | > 100 µM (inactive) | > 100 µM (inactive) | > 100 µM (inactive)
11 | COC(=O)C12OC3CO[Si](C(C)C)(C(C)C)O[Si](C(C)C)(C(C)C)OC3C1Oc1nc(=O)ccn12 (stereo unspecified) | 17.1 µM (inactive) | 17.8 µM (inactive) | 15.4 µM (inactive) |  | 16.2 µM (inactive) | 12.1 µM (inactive) | 18.2 µM (inactive) | 18.8 µM (inactive) | 14.3 µM (inactive) | 16.7 µM (inactive) | 16.5 µM | 15.2 µM (inactive) | 16.1 µM (inactive) | 17.3 µM (inactive) | 17.1 µM (inactive) | 16 µM (inactive) | 14.3 µM (inactive) | 15.5 µM (inactive) | 15.8 µM (inactive) | 15.5 µM (inactive)
12 | CC(=O)Nc1ccc(S(=O)(=O)Nc2nnc(S(N)(=O)=O)s2)cc1 |  | > 100 µM (inactive) | > 100 µM (inactive) | > 100 µM (inactive) |  | > 100 µM (inactive) | > 100 µM (inactive) | > 100 µM (inactive) | > 100 µM (inactive) |  | > 100 µM | > 100 µM (inactive) | > 100 µM (inactive) | > 100 µM (inactive) | > 100 µM (inactive) | > 100 µM (inactive) | > 100 µM (inactive) | > 100 µM (inactive) |  | 
13 | C[n+]1ccc(/C2=C3\C=CC(=N3)/C(c3cc[n+](C)cc3)=c3/cc/c([nH]3)=C(\c3cc[n+](C)cc3)C3=N/C(=C(/c4cc[n+](C)cc4)C4C=CC2N4)C=C3)cc1 |  | > 100 µM (inactive) | 51.9 µM (inactive) | 32.9 µM (inactive) | 43 µM (inactive) | 95.3 µM (inactive) | > 100 µM (inactive) | > 100 µM (inactive) | > 100 µM (inactive) | > 100 µM (inactive) | > 100 µM | > 100 µM (inactive) | 3.93 µM (inactive) | > 85.3 µM (inactive) | > 61.7 µM (inactive) | > 100 µM (inactive) | > 100 µM (inactive) | > 100 µM (inactive) | > 95.5 µM (inactive) | > 100 µM (inactive)
14 | Oc1ccc(-c2nc3ccccc3s2)cc1 | 20.4 µM (inactive) | 44.2 µM (inactive) | 42.3 µM (inactive) | 38.1 µM (inactive) |  | 25.8 µM (inactive) | 50.2 µM (inactive) | 21.5 µM (inactive) | 35.9 µM (inactive) | 53.3 µM (inactive) | 36 µM | 49.8 µM (inactive) | 42.4 µM (inactive) | 32.1 µM (inactive) | 37.2 µM (inactive) | 37.5 µM (inactive) | 32.4 µM (inactive) | 25.2 µM (inactive) | 34.5 µM (inactive) | 30.6 µM (inactive)
15 | NC1=NC(=O)/C(=C2\CCNC(=O)c3[nH]c(Br)cc32)N1 [HYMENIALDISINE] |  | 9.89 µM (inactive) |  | 65.6 µM (inactive) |  | 4.28 µM (inactive) and 3.45 µM (inactive) | 10.4 µM (inactive) | 7.87 µM (inactive) | 29.2 µM (inactive) and 40.8 µM (inactive) | 7.74 µM (inactive) and 13.8 µM (inactive) | 29.7 µM and 42.5 µM | > 52.1 µM (inactive) and > 57.5 µM (inactive) | 26.4 µM (inactive) and 18.6 µM (inactive) |  | 5.58 µM (inactive) | > 100 µM (inactive) | 13.4 µM (inactive) and 9.62 µM (inactive) | 80.9 µM (inactive) and 52.7 µM (inactive) |  | 7.21 µM (inactive) and 10.5 µM (inactive)
